Results: ChEMBL document CHEMBL1201862, “PubChem BioAssay data set” (2004)
Active and inactive are the calls of the source.

Legend:
Vero = test: cells; assay type: functional, cell-based; conditions: Chlorocebus sabaeus
Exodeoxyribonuclease V = target: T1, Exodeoxyribonuclease V (Escherichia coli (strain K12), UniProt P04993+P07648+P08394); test: RecBCD inhibition via phage-restricted bacterial growth – absorbance, V66 E. coli, mutant T4 phage, counter-screen for AddAB inhibitor project, dose response (AID 492957); assay type: functional, cell-based, Escherichia coli str. K-12 substr. MG1655
T1 sequence (P04993 whole entry): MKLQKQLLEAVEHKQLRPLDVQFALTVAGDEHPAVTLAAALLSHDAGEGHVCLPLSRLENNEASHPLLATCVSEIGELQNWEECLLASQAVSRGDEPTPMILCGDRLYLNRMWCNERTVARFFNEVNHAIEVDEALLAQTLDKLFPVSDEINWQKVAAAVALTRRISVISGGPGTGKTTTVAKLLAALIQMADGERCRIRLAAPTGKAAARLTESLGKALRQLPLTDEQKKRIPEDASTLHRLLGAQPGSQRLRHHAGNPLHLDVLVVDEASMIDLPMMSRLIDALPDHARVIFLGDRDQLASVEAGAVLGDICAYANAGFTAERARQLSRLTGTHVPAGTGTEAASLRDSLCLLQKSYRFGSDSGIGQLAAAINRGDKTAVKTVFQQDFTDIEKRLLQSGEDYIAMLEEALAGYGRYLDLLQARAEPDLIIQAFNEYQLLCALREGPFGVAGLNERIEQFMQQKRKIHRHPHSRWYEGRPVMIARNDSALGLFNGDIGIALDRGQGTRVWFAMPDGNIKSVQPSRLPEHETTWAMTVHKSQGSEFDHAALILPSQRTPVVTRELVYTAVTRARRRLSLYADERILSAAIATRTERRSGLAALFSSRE
T1 sequence (P07648 whole entry): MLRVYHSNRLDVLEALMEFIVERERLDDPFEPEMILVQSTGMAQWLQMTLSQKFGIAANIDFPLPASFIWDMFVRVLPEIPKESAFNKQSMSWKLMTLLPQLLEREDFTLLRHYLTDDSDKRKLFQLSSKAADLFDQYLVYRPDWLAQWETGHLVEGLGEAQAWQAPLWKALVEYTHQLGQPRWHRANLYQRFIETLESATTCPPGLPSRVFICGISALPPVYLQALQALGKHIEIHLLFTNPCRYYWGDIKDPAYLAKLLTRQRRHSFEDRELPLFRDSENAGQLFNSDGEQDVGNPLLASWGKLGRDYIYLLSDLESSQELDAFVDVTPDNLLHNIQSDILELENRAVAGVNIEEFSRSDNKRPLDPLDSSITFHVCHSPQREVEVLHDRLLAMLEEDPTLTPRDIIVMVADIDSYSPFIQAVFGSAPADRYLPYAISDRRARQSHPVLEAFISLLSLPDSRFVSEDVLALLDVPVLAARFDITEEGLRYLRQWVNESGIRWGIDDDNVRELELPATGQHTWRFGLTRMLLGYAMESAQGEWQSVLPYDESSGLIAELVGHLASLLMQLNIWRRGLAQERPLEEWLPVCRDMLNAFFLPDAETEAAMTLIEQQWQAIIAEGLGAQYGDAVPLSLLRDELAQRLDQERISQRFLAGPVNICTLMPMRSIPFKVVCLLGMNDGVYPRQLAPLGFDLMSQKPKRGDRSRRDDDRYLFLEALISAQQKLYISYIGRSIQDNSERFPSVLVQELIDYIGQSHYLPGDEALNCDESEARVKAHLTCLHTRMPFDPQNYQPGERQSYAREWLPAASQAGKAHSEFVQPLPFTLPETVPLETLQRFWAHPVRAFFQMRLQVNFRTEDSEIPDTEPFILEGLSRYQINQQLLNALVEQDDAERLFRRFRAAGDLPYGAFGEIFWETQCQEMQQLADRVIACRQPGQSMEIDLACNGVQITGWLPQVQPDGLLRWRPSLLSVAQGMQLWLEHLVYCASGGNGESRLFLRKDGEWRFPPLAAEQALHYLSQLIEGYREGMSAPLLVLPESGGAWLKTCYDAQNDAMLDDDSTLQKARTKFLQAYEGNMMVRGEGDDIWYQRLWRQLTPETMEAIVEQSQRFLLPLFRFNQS
T1 sequence (P08394 whole entry): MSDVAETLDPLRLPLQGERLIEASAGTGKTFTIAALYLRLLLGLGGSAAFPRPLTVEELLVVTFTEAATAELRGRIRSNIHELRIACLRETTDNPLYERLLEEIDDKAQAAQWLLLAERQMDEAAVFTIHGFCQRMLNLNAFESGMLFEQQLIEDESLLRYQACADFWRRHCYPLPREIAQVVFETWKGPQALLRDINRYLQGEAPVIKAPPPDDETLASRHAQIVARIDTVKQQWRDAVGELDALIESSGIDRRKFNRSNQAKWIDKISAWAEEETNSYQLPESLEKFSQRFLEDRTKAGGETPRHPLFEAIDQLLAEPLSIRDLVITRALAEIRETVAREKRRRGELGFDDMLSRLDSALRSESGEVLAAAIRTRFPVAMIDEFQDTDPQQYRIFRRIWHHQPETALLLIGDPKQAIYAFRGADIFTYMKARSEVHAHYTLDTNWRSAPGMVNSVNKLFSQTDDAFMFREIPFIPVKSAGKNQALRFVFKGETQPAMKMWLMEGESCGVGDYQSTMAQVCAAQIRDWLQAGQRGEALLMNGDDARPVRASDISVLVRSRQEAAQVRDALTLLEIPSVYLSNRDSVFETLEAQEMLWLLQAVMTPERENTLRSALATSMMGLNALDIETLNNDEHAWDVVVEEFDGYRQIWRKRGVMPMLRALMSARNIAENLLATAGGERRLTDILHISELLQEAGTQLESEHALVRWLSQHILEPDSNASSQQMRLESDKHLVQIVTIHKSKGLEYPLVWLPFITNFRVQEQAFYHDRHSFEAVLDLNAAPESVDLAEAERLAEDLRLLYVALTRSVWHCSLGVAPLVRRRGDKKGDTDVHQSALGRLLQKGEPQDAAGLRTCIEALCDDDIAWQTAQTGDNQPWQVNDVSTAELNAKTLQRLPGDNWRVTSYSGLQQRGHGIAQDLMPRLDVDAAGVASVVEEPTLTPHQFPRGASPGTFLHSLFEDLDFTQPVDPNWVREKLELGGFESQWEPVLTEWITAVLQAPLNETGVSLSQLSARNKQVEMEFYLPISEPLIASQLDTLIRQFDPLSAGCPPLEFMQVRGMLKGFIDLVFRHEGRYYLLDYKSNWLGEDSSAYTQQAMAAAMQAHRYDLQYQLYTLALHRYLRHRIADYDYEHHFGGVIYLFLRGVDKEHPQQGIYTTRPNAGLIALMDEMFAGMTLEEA

BJ = test: cells; assay type: functional, cell-based; conditions: Homo sapiens
[1] = NIH3T3 cell viability loss – ATP luminescence, mouse fibroblasts, counter-screen, dose response (AID 2010); assay type: functional, cell-based;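 note: cells exposed to compound for about 90 hours before reading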
Escherichia coli = test: microbe, parasite or virus in culture
SUMO-activating enzyme = SUMO-activating enzyme (Homo sapiens, UniProt Q9UBT2); test: blockers of SAE1/SAE2–UBC9 SUMO transfer – biochemical, HTRF, uHTS, primary screen (AID 2006); assay type: protein-complex assay
SUMO-activating enzyme, sequence (Q9UBE0 whole entry): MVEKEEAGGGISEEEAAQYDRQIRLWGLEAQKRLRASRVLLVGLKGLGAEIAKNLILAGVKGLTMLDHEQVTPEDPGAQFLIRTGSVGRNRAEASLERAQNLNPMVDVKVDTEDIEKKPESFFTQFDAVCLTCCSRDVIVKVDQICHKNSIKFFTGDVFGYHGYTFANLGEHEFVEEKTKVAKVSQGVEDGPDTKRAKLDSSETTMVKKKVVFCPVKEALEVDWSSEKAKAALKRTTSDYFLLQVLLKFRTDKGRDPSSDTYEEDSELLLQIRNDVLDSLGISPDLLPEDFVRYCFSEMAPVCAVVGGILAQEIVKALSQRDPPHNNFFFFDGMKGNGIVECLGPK
SUMO-activating enzyme, sequence (Q9UBT2 whole entry): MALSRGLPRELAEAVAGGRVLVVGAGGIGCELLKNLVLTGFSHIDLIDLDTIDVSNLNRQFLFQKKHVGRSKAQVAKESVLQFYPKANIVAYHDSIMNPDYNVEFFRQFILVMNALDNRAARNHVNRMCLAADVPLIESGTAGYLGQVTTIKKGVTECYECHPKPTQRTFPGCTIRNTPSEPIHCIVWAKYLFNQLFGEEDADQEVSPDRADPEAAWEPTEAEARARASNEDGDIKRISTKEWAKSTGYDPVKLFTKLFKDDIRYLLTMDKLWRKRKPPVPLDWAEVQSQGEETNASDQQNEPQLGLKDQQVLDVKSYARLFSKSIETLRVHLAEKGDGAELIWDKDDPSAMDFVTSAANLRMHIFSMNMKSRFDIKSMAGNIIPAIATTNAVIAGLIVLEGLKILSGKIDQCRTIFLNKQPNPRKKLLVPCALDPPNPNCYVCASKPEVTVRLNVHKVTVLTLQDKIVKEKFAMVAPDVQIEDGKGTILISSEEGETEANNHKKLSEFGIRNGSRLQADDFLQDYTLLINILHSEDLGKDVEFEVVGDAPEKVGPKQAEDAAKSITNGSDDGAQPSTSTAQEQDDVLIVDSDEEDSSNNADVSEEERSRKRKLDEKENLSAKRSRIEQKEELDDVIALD

In the case of `CCCC(=O)NC(c1ccc(C(C)C)cc1)c1ccc2cccnc2c1O` (stereo unspecified), the IC50 (Vero) is reported as > 25 µM (active), the IC50 (Exodeoxyribonuclease V) is reported as > 119 µM (inactive) and the EC50 (BJ) is reported as 2.91 µM (active). For the same molecule, the EC50 [1] was 3.75 µM (active).

In the case of `O=[N+]([O-])c1ccc(Sc2cccc[n+]2[O-])c2nonc12`, the AC50 (Escherichia coli) is reported as 8.5 µM (active).

In the case of `N#Cc1c(N2CCCCC2)nc(N)c2c(N)nc(SCC(=O)O)cc12`, the IC50 (SUMO-activating enzyme) is reported as 3.92 µM (active).
